The results in this text go back to patent publication US20080004272A1, “Compositions and methods for modulating gated ion channels” (PainCeptor Pharma Corporation, priority 2006, published 2008).

The structures appear in SMILES notation. Where two headings read alike, the source gives them in different places.

Test [1] has as its target T1, ASIC1a (Homo sapiens, UniProt P78348).
T1 sequence (P78348 1-528): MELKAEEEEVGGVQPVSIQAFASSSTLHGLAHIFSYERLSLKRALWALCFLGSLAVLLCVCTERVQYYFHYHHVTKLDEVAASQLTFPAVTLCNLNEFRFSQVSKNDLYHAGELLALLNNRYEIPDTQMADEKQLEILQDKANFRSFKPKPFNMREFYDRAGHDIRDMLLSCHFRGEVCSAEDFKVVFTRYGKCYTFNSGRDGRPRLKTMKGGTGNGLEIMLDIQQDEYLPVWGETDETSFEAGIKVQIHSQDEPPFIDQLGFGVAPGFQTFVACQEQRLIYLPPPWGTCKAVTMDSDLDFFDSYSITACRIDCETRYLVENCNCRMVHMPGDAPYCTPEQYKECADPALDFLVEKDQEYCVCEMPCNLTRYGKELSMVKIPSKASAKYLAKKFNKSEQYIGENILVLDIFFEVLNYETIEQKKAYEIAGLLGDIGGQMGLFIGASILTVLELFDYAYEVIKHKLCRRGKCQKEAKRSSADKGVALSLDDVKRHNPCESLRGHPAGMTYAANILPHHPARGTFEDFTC
Briefly: Calcium imaging of MES-induced calcium response (FLIPR). Type of test: cell-based. Further details: host or cells: HEK293.

The subject of test [2] is formalin-induced pain. Kind of test: Formalin test, model of acute tonic pain. The following applies: rat; for Effect on pain intensity (flinching or licking behaviors): s.c. 30 min prior to formalin injection; for ED50: sc, s.c. 30 min prior to formalin, licking and biting episodes in phase IIa, read-out: ED50, effective dose where the pain score is reduced by half. Type of test: in vivo. The method, then: Male Sprague-Dawley rats are housed together in groups of three animals under standard conditions with unrestricted access to food and water. All experiments are conducted according to the ethical guidelines for investigations of experimental pain in conscious animals (Zimmerman, 1983)
Assessment of formalin-induced flinching behavior in normal, uninjured rats (body weight 150-180 g) is made with the use of an Automated Nociception Analyser (University of California, San Diego, USA). Briefly, this involves placing a small C-shaped metal band (10 mm wide×27 mm long) on the hindpaw of the rat to be tested. The rats (four rats are included in each testing session) are then placed in a cylindrical plexiglass observation chamber (diameter 30.5 cm and height 15 cm) for 20 min for adaptation purposes prior to being administered drug or vehicle according to the experimental paradigm being followed. After adaptation, individual rats are then gently restrained and formalin (5% in saline, 50 μl, s.c.) is injected into the plantar surface of the hindpaw using a 27G needle. Rats are then returned to their separate observation chambers, each of which are in turn situated upon an enclosed detection device consisting of two electromagnetic coils designed to produce an electromagnetic field in which movement of the metal band could be detected. […] A sampling interval of 1 min is used and on the basis of the resulting response patterns 5 phases of nociceptive behaviour are identified and scored: first phase (P1; 0-5 min), interphase (Int; 6-15 min), second phase (P2; […]), phase 2A (P2A; 16-40 min) and phase 2B (P2B; 41-60 min).
Nociceptive behavior is also determined manually every 5 min by measuring the amount of time spent in each of four behavioral categories: 0, treatment of the injected hindpaw is indistinguishable from that of the contralateral paw; 1, the injected paw has little or no weight placed on it; 2, the injected paw is elevated and is not in contact with any surface; 3, the injected paw is licked, bitten, or shaken. A weighted nociceptive score, ranging from 0 to 3 is calculated by multiplying the time spent in each category by the category weight, summing these products, and dividing by the total time for each 5 min block of time. […] On the basis of the resulting response patterns, […] of nociceptive behavior are identified and scored: first phase (P1; 0-5 min), interphase (Int; 6-15 min), second phase (P2; […]), phase 2A (P2A; 16-40 min) and phase 2B (P2B; 41-60 min).
Statistical analysis is performed using the Prism™ 4.01 software package (GraphPad, San Diego, Calif., USA). The difference in response levels between treatment groups and control vehicle group is analyzed using an ANOVA followed by Bonferroni's method for post-hoc pair-wise comparisons. […]

Usually IC50 stands for the concentration that gives 50% inhibition. In general, ED50 refers to the dose at which the effect has come halfway, by size or by number of responders. As to `CN1CCc2c(-c3ccccc3)cc(C#N)c(N)c2C1` [Compound 203, 8-Amino-2-methyl-5-phenyl-1,2,3,4-tetrahydro-isoquinoline-7-carbonitrile], the IC50 in test [1] was less than 10 µM. Besides, in test [2], the “Effect on pain intensity (flinching or licking behaviors)” value was “dose-dependent reduction of the pain intensity” and the ED50 was found to be 6 mg/kg.
Take `COc1ccc(F)cc1-c1cc(C#N)c(N)c2c1CCN(C)C2` [Compound 206, 8-Amino-5-(5-fluoro-2-methoxy-phenyl)-2-methyl-1,2,3,4-tetrahydro-isoquinoline-7-carbonitrile]: the IC50 in test [1] (ASIC1a expressing HEK293 cells, MES-induced calcium response, read-out: IC50 (FLIPR)) was in the range of 20 to 40 µM. Moreover, in test [2], the “Effect on pain intensity (flinching or licking behaviors)” value is “dose-dependent reduction of the pain intensity” and the ED50 turned out to be 50 mg/kg.
